Converted amounts (≈) assume the structure as drawn.
Biological target: α-Glucosidase (from baker's yeast)
Assay: not given
Details: pH 7.2, p-nitrophenyl-a-d-glucopyranoside; footnote **; cited from earlier work

SMILES | IC50 [µM]
CCCCCCCCCCN(CCCCCCCCCC)C(=O)CNC(=O)N1CC(O)C(O)C(O)C1 (centres unmarked) [Compound 16] | > 100
CCCCCCCCCCCCCCNC(=N)N1CC(O)C(O)C(O)C1 (centres unmarked) [Compound 5] | > 100
CCCCCCCCNC(=N)N1CC(O)C(O)C(O)C1 (centres unmarked) [Compound 15] | > 100
CCCCCCCCCCCCNC(=N)N1CC(O)C(O)C(O)C1 (centres unmarked) [Compound 4] | > 100

Biological target: β-galactocerebrosidase (GALC)
Assay: not given
Details: footnote **; cited from earlier work

SMILES | IC50 [µM]
CCCCCCCCCCN(CCCCCCCCCC)C(=O)CNC(=O)N1CC(O)C(O)C(O)C1 (centres unmarked) [Compound 16] | > 10
CCCCCCCCCCCCCCNC(=N)N1CC(O)C(O)C(O)C1 (centres unmarked) [Compound 5] | > 10
CCCCCCCCNC(=N)N1CC(O)C(O)C(O)C1 (centres unmarked) [Compound 15] | > 10
CCCCCCCCCCCCNC(=N)N1CC(O)C(O)C(O)C1 (centres unmarked) [Compound 4] | > 10

Biological target: naringinase (Nar)
Assay: not given
Details: footnote **; cited from earlier work

SMILES | IC50 [µM]
CCCCCCCCCCN(CCCCCCCCCC)C(=O)CNC(=O)N1CC(O)C(O)C(O)C1 (centres unmarked) [Compound 16] | > 100
CCCCCCCCCCCCCCNC(=N)N1CC(O)C(O)C(O)C1 (centres unmarked) [Compound 5] | 33.5 ± 1.7
CCCCCCCCNC(=N)N1CC(O)C(O)C(O)C1 (centres unmarked) [Compound 15] | 53 ± 2.2
CCCCCCCCCCCCNC(=N)N1CC(O)C(O)C(O)C1 (centres unmarked) [Compound 4] | 37.2 ± 1.7

Biological target: β-Galactosidase (from bovine liver)
Assay: not given
Details: footnote **; cited from earlier work

SMILES | IC50 [µM]
CCCCCCCCCCN(CCCCCCCCCC)C(=O)CNC(=O)N1CC(O)C(O)C(O)C1 (centres unmarked) [Compound 16] | 12.5 ± 2.9
CCCCCCCCCCCCCCNC(=N)N1CC(O)C(O)C(O)C1 (centres unmarked) [Compound 5] | 1.6 ± 0.2
CCCCCCCCNC(=N)N1CC(O)C(O)C(O)C1 (centres unmarked) [Compound 15] | < 0.1
CCCCCCCCCCCCNC(=N)N1CC(O)C(O)C(O)C1 (centres unmarked) [Compound 4] | 0.7 ± 0.1

Tested on: E. coli (ATCC 25922)
Assay: Minimal inhibitory concentration, broth microdilution (negative control strain)
Type: cell-based
Details: Escherichia coli, ATCC25922; broth microdilution, 20 h at 35 °C; read-out: MIC E. coli ATCC25922
Method: (§1) The minimal inhibitory concentrations (MICs) were determined against the bacterial strains S. aureus (ATCC 29213) and E. coli (ATCC 25922), and the results are presented in Table S6.
(§2) Antimicrobial testing was carried out by the broth microdilution method in a 96-well plate format following the CLSI guidelines and European Committee for Antimicrobial Susceptibility Testing (EUCAST) recommendations. Bacterial suspension of a specific bacterial strain equivalent to 0.5 McFarland turbidity standard was diluted with cation-adjusted Mueller Hinton broth to obtain a final inoculum of 10^5 CFU/mL. Compounds dissolved in 20% DMSO and inoculum were mixed together and incubated for 20 h at 35 °C. After incubation, the minimal inhibitory concentration (MIC) values were determined by visual inspection as the lowest dilution of compounds showing no turbidity. The MICs were determined against S. aureus (ATCC 29213) and E. coli (ATCC 25922) bacterial strains. Tetracycline was used as a positive control on every assay plate, showing MICs of 0.5 µg/mL and 1 µg/mL for S. aureus and E. coli, respectively.

SMILES | MIC [µM]
CCCCCCCCCCCCCCNC(=N)N1CC(O)C(O)C(O)C1 (centres unmarked) [Compound 5] | 125 (≈ 46.4 µg/mL)
CCCCCCCCCCCCNC(=N)N1CC(O)C(O)C(O)C1 (centres unmarked) [Compound 4] | 500 (≈ 172 µg/mL)

Biological target: α-Galactosidase (from green coffee beans)
Assay: not given
Details: pH 6.8, p-nitrophenyl-a-d-galactopyranoside; footnote **; cited from earlier work

SMILES | IC50 [µM]
CCCCCCCCCCN(CCCCCCCCCC)C(=O)CNC(=O)N1CC(O)C(O)C(O)C1 (centres unmarked) [Compound 16] | > 100
CCCCCCCCCCCCCCNC(=N)N1CC(O)C(O)C(O)C1 (centres unmarked) [Compound 5] | > 100
CCCCCCCCNC(=N)N1CC(O)C(O)C(O)C1 (centres unmarked) [Compound 15] | > 100
CCCCCCCCCCCCNC(=N)N1CC(O)C(O)C(O)C1 (centres unmarked) [Compound 4] | > 100

Tested on: S. aureus (ATCC 29213)
Assay: Minimal inhibitory concentration, broth microdilution
Type: cell-based, Staphylococcus aureus
Details: Staphylococcus aureus, ATCC29213; broth microdilution, 20 h at 35 °C; read-out: MIC S. aureus ATCC29213
Method: as §1, §2

SMILES | MIC [µM]
CCCCCCCCCCCCCCNC(=N)N1CC(O)C(O)C(O)C1 (centres unmarked) [Compound 5] | 15 (≈ 5.57 µg/mL)
CCCCCCCCCCCCNC(=N)N1CC(O)C(O)C(O)C1 (centres unmarked) [Compound 4] | 62.5 (≈ 21.5 µg/mL)

Same assay, conditions: in words

SMILES | antibacterial activity against S. aureus ATCC 29213
CCCCCCCCCCCCCCNC(=N)N1CC(O)C(O)C(O)C1 (centres unmarked) [Compound 5] | modest antibacterial activities
CCCCCCCCCCCCNC(=N)N1CC(O)C(O)C(O)C1 (centres unmarked) [Compound 4] | modest antibacterial activities

Biological target: β-Glucosidase (from almond)
Assay: not given
Details: pH 5.0, p-nitrophenyl-b-d-glucopyranoside; footnote **; cited from earlier work

SMILES | IC50 [µM]
CCCCCCCCCCN(CCCCCCCCCC)C(=O)CNC(=O)N1CC(O)C(O)C(O)C1 (centres unmarked) [Compound 16] | > 100
CCCCCCCCCCCCCCNC(=N)N1CC(O)C(O)C(O)C1 (centres unmarked) [Compound 5] | 2.8 ± 0.1
CCCCCCCCNC(=N)N1CC(O)C(O)C(O)C1 (centres unmarked) [Compound 15] | 38.1 ± 1.5
CCCCCCCCCCCCNC(=N)N1CC(O)C(O)C(O)C1 (centres unmarked) [Compound 4] | 10.7 ± 0.3

Biological target: human recombinant β-glucocerebrosidase (GBA)
Assay: not given
Details: pH 5.2; footnote **; read-out: IC50 GBA pH 5.2; cited from earlier work

SMILES | IC50 [µM]
CCCCCCCCCCN(CCCCCCCCCC)C(=O)CNC(=O)N1CC(O)C(O)C(O)C1 (centres unmarked) [Compound 16] | > 10
CCCCCCCCCCCCCCNC(=N)N1CC(O)C(O)C(O)C1 (centres unmarked) [Compound 5] | 0.04 ± 0.01
CCCCCCCCNC(=N)N1CC(O)C(O)C(O)C1 (centres unmarked) [Compound 15] | 0.99 ± 0.09
CCCCCCCCCCCCNC(=N)N1CC(O)C(O)C(O)C1 (centres unmarked) [Compound 4] | 0.04 ± 0.01

Same assay, conditions: pH 7.0; footnote **; read-out: IC50 GBA pH 7.0; cited from earlier work

SMILES | IC50 [µM]
CCCCCCCCCCN(CCCCCCCCCC)C(=O)CNC(=O)N1CC(O)C(O)C(O)C1 (centres unmarked) [Compound 16] | > 10
CCCCCCCCCCCCCCNC(=N)N1CC(O)C(O)C(O)C1 (centres unmarked) [Compound 5] | 0.02 ± 0.001
CCCCCCCCNC(=N)N1CC(O)C(O)C(O)C1 (centres unmarked) [Compound 15] | 0.24 ± 0.02
CCCCCCCCCCCCNC(=N)N1CC(O)C(O)C(O)C1 (centres unmarked) [Compound 4] | 0.02 ± 0.001

— paper PMC11350809, “Targeting N-Acetylglucosaminidase in Staphylococcus aureus with Iminosugar Inhibitors” (Antibiotics, 2024)
